Assays:
[1] = tested on: CD4, CD8 and CD25 T cells isolated from PLN of TID mice; test: In vitro co-stimulation / CFSE proliferation of T cells from PLN of TID mice; format: cell-based, mouse
Experimental: Purified CD4, CD8, and CD25 cells were isolated from TID mice using the mice CD4 T Cell Isolation Kit (#130-104-454), CD8a+ T Cell Isolation Kit II (#130-095-236), and CD4+ CD25+ Regulatory T Cell Isolation Kit (Cat no: 130-091-041) following standard protocol. Briefly, after sacrificing the TID mice, pancreatic lymph nodes (PLN) were isolated and single cell suspensions were prepared. Non-CD4 T cells and non-CD8 T cells were isolated using magnetically labeled microbeads. Non-CD4 T cells were retained in the MACS column and non-touch enriched CD4 and CD8 cells were eluted from the column. Simultaneously CD25 positive cells were separated from the CD4 clute with anti-CD25PE microbeads with more than 90% purity. Single cell suspensions of CD4, CD8, and CD25^− T cells were stained with carboxyfluorescein succinimidyl ester (CFSE) to track the induced proliferation. Single cell suspensions of purified CD4, CD8, and CD25 T cells (CFSE-labeled) were co-stimulated with recombinant human GAD65 (rhGAD65) protein ([…]), GC7 (100 mM), anti-DLL4 ([…]), rhGAD65+GC7, rhGAD65+GC7+anti-DLL4, or CD3+CD28 stimulated for 4 days (n=7). CD4 T cells (CFSE-labeled) were further stained with fluorochrome-conjugated antibodies against mouse IL-17(clone 559502, PE), IFNg (clone 554413, APC), and forkhead box P3 (Foxp3) (clone MF23, Alexa Fluor@488, Alexa Fluor@647). In vitro proliferation assays were analyzed by FLOWJO V10 Beta software using fix ratio, fix CV, and fix background from unstimulated cells.

[2] = tested on: TID mice and NOD mice; conditions: cited from earlier work
[3] = biological target: T1, deoxyhypusine synthase (DHS) (Homo sapiens, UniProt P49366); conditions: cited from earlier work
T1 sequence (P49366 1-369): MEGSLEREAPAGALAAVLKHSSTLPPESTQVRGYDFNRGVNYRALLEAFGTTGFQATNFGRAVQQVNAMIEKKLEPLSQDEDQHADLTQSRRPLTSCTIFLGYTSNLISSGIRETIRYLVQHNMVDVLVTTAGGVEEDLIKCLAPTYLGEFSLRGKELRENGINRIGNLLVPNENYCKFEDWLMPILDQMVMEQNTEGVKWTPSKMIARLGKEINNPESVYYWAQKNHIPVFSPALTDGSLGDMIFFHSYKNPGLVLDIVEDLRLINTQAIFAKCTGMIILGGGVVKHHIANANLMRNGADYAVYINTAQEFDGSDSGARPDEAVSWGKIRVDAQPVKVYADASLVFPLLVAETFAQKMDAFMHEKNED

[4] = tested on: anti-GAD65, anti-IA2 and anti-insulin autoantibodies; test: Anti-GAD65, anti-IA2 and anti-insulin autoantibody ELISA in mouse serum; format: in vivo; conditions: TID mice; treatment with GC7 or anti-DLL4
Experimental: Anti-GAD65, anti-IA2, and anti-insulin autoantibodies were measured in mice serum using
an Anti-GAD65 ELISA kit (Kronus, Star, ID) according to the manufacturer's instructions. Mice anti-insulin antibodies were measured using a mouse insulin autoantibody (IAA) ELISA kit (Abbexa, catalog #abx053161. Abbexa LLC, Houston, TX, United States; with a positive predictive value range between 0.16 and 10 ng/ml). Anti-IA2 autoantibodies were also measured using a human IA2 autoantibody (IA2Ab) ELISA kit (Kronus, Star, ID) following the manufacturers' manual.

SMILES | Treg population (expression of CD25 and FOXP3 on CD3+ CD4 T cells) ([1]; GC7 (100 mM), 4 days) | replicative index of Treg cells (Treg peak) ([1]; GC7 (100 mM), CFSE) | proliferation index of CD8 T cells ([1]; compared to conventional stimulation with anti-(CD3+CD28)/rhGAD65) | adverse effect in previous in vivo studies [2] | IC50 [3] [µM] | GAD65 antibody titer [4]
N=C(N)NCCCCCCCN [GC7, N1-guanyl-1,7-diaminoheptane] | significantly enriched | significant Treg peak | not significant | did not reveal any significant adverse effect | 0.017 | significantly reduced
C/C(=N\NC(=N)N)c1cc(NC(=O)CCCCCCCCC(=O)Nc2cc(/C(C)=N/NC(=N)N)cc(/C(C)=N/NC(=N)N)c2)cc(/C(C)=N/NC(=N)N)c1 [Semapimod] |  |  |  |  | ~2000 | 

Reference: patent publication US20240382589A1, “Synergistic Inhibition of eIF5A and Notch Signaling in Intermediate Tregs” (The University of Toledo, priority 2022, published 2024)
